Data as given in patent publication US20100143319A1, “KIWIFRUIT COMPOSITIONS” (priority 2007, published 2010).

What was measured:
mouse Constipation Model = experiment: First animal trial: constipation experiment (Constipation Model, diphenoxylate 0.50 g/l); assay type: in vivo, Kunmin male mice; settings: mean ± SD, n=10
Text: (§1) Experimental animals: 100 Kunmin male mice (class two) were purchased from the animal center in the Academy of Military Medical Sciences of the Chinese PLA, with a weight of 16 to 18 g. • Group 1: 50 mice were randomly divided into 5 experimental groups each of 10 mice (negative control group, model control group and three dosage groups), to test small intestine motility. • Group 2: 50 mice were randomly divided into 5 experimental groups each of 10 mice (negative control group, model control group and three dosage groups), to measure the following parameters: time of first melena defecation, the number of faeces pellets, the weight of faeces, and to observe the shape of the faeces. Number of qualitative qualification is SCXK M 2002-001.
For this experiment, the dosage was set at 10 times that of the recommended dosage, namely 0.29 g/kgBW per day (4 capsules). The experiment was designed with a low dosage group (0.145 g/kgBW) (2 capsules) and a high dosage group (0.87 g/kgBW) (12 capsules). The kiwifruit extract was dissolved by gentle agitation into sterile distilled water. For both the negative control group (0 g/kgBW) and the model control group sterile distilled water was used as the treatment. Oral intubation was used to administer the dose to the mice, at a measured quantity of 20 ml/kgBW.
Parameters measured in the animal trial were time of defecation, the number of faeces pellets, the weight of the faeces, and visual observation of the shape of the faeces
The different doses of kiwifruit composition were orally administered to the mice, and the shape of the faeces during the eight day feeding trial was observed. […] The mice in the Peristaltic Inhibition Model control group and the three dose groups were orally administered 0.50 g/l of diphenoxylate in the calculated volume of 20 ml/kg BW, whilst the negative group were given an equivalent volume of water. […] The time of the first melena defecation was recorded, along with the number of faecal pellets within 5 hours and the weight of the faeces, as well as the shape of the faeces.

[1] = system: mouse small intestine motility; experiment: First animal trial: small intestine motility experiment (Peristaltic Inhibition Model, diphenoxylate 0.25 g/l); assay type: in vivo, Kunmin male mice; settings: model control: 0.25 g/l diphenoxylate oral, 20 ml/kg BW; mean ± SD, n=10; P<0.01 vs negative control
Text: as §1, with “Number of qualitative qualification is SCXK M 2002-001.” left out
For this experiment, the dosage was set at 10 times that of the recommended dosage, namely 0.29 g/kgBW per day (4 capsules). […] Oral intubation was used to administer the dose to the mice, at a measured quantity of 20 ml/kgBW.
8 days after oral administration of the different treatments, each group was fasted for 16 hours (with free access to drinking water). Mice in the Peristaltic Inhibition Model control group and the three dose groups were orally administered 0.25 g/l, diphenoxylate at a measured quantity of 20 ml/kg BW. […] The 0 g/kg BW group (negative control group and model control group) were orally administered blank inks with a measured quantity of 20 ml/kg BW. […]

[2] = model control: 0.50 g/l diphenoxylate oral, 20 ml/kg BW, P 0.000 vs negative control

CCOC(=O)C1(c2ccccc2)CCN(CCC(C#N)(c2ccccc2)c2ccccc2)CC1 [diphenoxylate, Diphenoxylate]
Number of faeces pellets defecated within 5 hours (grain) (mouse Constipation Model; [2]): 25 ± 16 grain
Weight of faeces defecated within 5 hours (mouse Constipation Model; [2]): 0.47 ± 0.26 grain
Time of first melena defecation (mouse Constipation Model; model control: diphenoxylate oral, 20 ml/kg BW (0.50 g/l, 0.25 g/L elsewhere in the source), P<0.01 vs negative control): 231.7 ± 81.7 min
Ink Progression (%) [1]: 33.8 ± 7.0 %
